Counter-ions that a name gives are not always drawn. Like-named read-outs stand apart in the source and are kept apart here.
Legend:
[1] = molecular target: human μ-opioid receptor (Homo sapiens (Human), UniProt P35372); test: Antagonist activity test using [35S]-GTPγS bond as index using human μ-opioid receptor-expressing cell membrane; format: biochemical
Protocol: Cells in which a human μ-opioid receptor had been highly expressed was purchased from ChanTest (Cleveland). The cells were cultured in a carbon dioxide gas culturing apparatus by using a Ham's F12 culture medium (Invitrogen) containing 10% of fetal bovine blood serum, 1% of non-essential amino acids, 0.4 mg/ml of G418, 100 U/ml of penicillin and 100 μg/ml of streptomycin. The cultured cells were suspended by using a 0.25% trypsin 1 mM EDTA solution, the suspension was collected by using phosphate-buffered saline and centrifuged at 4° C. and 1,000 rpm for 10 minute to remove the supernatant, whereby a cell mass was obtained. […] Similar homogenization and centrifugation operations were repeated on the sediment, a homogenized buffer was added again to the obtained sediment, and the resultant was similarly homogenized to give a membrane fraction solution. The obtained membrane fraction solution was dispensed, rapidly frozen and stored under freezing at −70° C. or less until use. Furthermore, the protein concentration of the obtained membrane fraction solution was measured by using a BCA protein Assay Kit (Cat. 23227, Pierce) according to the protocol attached to the kit.
The cell membrane fraction solution in which the human μ-opioid receptor had expressed, which had been stored under freezing, was melted, a GTP assay buffer (100 mM NaCl, 5 mM MgCl2, 1 mM EDTA-containing 50 mM Hepes (pH 7.4)) was added thereto, and the resultant was homogenized repeatedly twice by using a Polytron homogenizer (SMT Multi Disperser PB95) under ice cooling at 12,000 rpm for 20 seconds to give a homogeneous solution, and the homogeneous solution was diluted to 0.036 mg/ml with a GTP assay buffer containing 18.2 μM of GDP (final concentration: […]). The dilution was incubated for 15 minutes or more under ice cooling until the reaction was initiated. […] [^35S]-GTPγS (NEG030X, Perkinelmer) was diluted with a GTP assay buffer so as to be 0.616 nM (final concentration: 0.08 nM). The resultant was diluted with a GTP assay buffer so as to be 200 nM (final concentration: 10 nM) by using [D-Ala^2, N-Me-Phe^4, Gly^5-ol]-enkephalinacetate (DAMGO, Sigma) as a μ-opioid receptor agonist. WGA Coated PVT SPA Beads (RPNQ0001, Perkinelmer) were added so as to be 20 mg/ml with a GTP assay buffer, and the resultant was suspended (final concentration: 1 mg/well). 4 μL/well of a test substance solution, 10 μL/well of a DAMGO solution, 26 μL/well of a [^35S]-GTPγS solution, […] of a suspension liquid of WGA Coated PVT SPA Beads, and 110 μL/well of the membrane fraction solution were added to a 96 well plate (1450-401, Perkinelmer), the top part of the plate was sealed, and a reaction was performed at 30° C. for 60 minutes under stirring with a plate shaker. For each measurement plate, a well to which DMSO had been added instead of the test substance, and a well to which DMSO had been added instead of the test substance and a GTP assay buffer had been added instead of the DAMGO solution were prepared. Furthermore, after the reaction was completed, the reactant was centrifuged at room temperature and 1,000 rpm for 3 minutes, and the radioactivity was measured by a microplate scintillation luminescence counter (Perkinelmer).
The IC50 value of the test substance was calculated by using Graphpad Prism 5.

[2] = molecular target: hERG (Homo sapiens (Human), UniProt Q12809); test: Safety margin against hERG inhibitory activity; details: hERG IC50×1000/{concentration in plasma at ED50×(1−protein binding rate/100)}
Protocol: In order to compare the risks of extension of QT interval prolongation in the electrocardiogram among the test substances, the safety margins against the hERG inhibitory effect were calculated. […] Therefore, the following formula was used for calculating the safety margin, and the obtained values were described in Table 7. Safety margin against hERG inhibitory effect=IC50×1000/{concentration in plasma×(1−protein binding rate/100)}
IC50: the IC50 value in a hERG inhibition assay (μM)
Plasma concentration: the plasma concentration of test substance (nM) at the ED50 value in the test for evaluating the anti-pruritic effect in the morphine model
Protein binding rate: the protein binding rate (%) in the protein binding assay in murine serum

[3] = molecular target: hERG current (Homo sapiens (Human), UniProt Q12809); test: cell-based
Source text: A: the suppression rate (%) of the test substance in each cell
B: the average suppression rate (%) of the vehicle control group

[4] = Plasma concentration of test substance at ED50 value (mice, LC/MS/MS); format: in vivo; details: at the ED50 value, at time of morphine administration, oral, linear regression from two doses
Protocol: The concentration of the test substances in blood plasma was confirmed by using mice of the same week-old for the same dose as that used in the evaluation of the anti-pruritic effect. The test substance was administered by forced oral administration of an administration vehicle prepared in a similar manner to that in the evaluation of the anti-pruritic effect under a non-fasting condition. The blood samples were collected from the orbital venous plexus, within from 15 minutes after the administration of the test substance to after 180 minutes at the maximum, for multiple times including the timing at which the morphine solution was intracisternally administered, under inhalation anesthesia with diethyl ether or isoflurane using a heparin-treated hematocrit tubes. The collected blood samples were immediately ice-cooled and centrifuged at 1,800 g for 15 minutes at 4° C., and the plasma fractions were transferred and stored under freezing at −30° C. or less until measurement.
The concentrations of the test substances in plasma were measured using LC/MS/MS. Furthermore, as the measurement samples for LC/MS/MS, the supernatants obtained by adding an internal standard substance and acetonitrile in an amount within a range from 5-fold to 10-fold of the amount of the plasma to the collected plasma samples, and removing proteins therefrom, was used.

[5] = test system: pruritus mice model to which morphine had been intracisternally administered; test: Anti-pruritic effect in pruritus mice model to which morphine had been intracisternally administered; format: in vivo; details: oral administration, male ICR mice, inhibition of morphine-induced scratching behavior
Protocol: As experimental animals, male ICR (Cr1j: CD1 (ICR): Charles River Japan) mice were used at 5 to 6-week old. The mice were placed in an acrylic cage (colorless and transparent, W 13.5 cm×D 9.5 cm×H 40 cm) for observing scratching behavior for 30 minutes or more to thereby allow the mice to get used to the observation environment, and the test substance solutions were forcedly orally administered to the test substance-administered groups. In addition, an administration vehicle was forcedly orally administered to the normal control group and the pathological control group. A necessary amount of the test substance was weighed and formed into a micropowder in an agate mortar, an administration vehicle, a 0.5 w/v % methyl cellulose 400 solution (Wako Pure Chemical Industries Ltd.) was added little by little, and preparation was performed by suspending or dissolving so as to give an intended concentration (from 0.025 to 3 mg/ml). The test doses were preset to suitable doses in the range in which the maximum dose is 30 mg/10 ml/kg.
Based on 30 minutes after the forced oral administration of the test substance as a criterion, the time for the intracisternal administration of morphine was suitably set up to 120 minutes after at the maximum, with consideration for the times of maximum plasma concentration of the respective test substances, in the case when the in vivo pharmacokinetics of the test substance had been confirmed in advance. Furthermore, saline was intracisternally administered to the normal control group, and the above-mentioned morphine solution was intracisternally administered to the pathogenic control group, so as to be 5 μL/site at the same time as that of the test substance group after the forced oral administration of the administration vehicle in either case.
The behavior of each mouse within 60 minutes from the intracisternal administration of the morphine solution or saline was recorded by a digital video camera that was installed immediately above the acrylic cage, the images were stored in a digital video recorder, and the number of frequency of the scratching behavior was measured. The number of frequency of the scratching behavior was measured with deeming a behavior in which the mouse raised its hindlimb, scratched the facial surface and the peripheral sites thereof, and got the hindlimb off from the body within 30 minutes from after the intracisternal administration of the morphine or saline as one time.
The anti-pruritic effect of each test substance was obtained as follows. As an inhibition ratio against the number of frequency of the scratching behavior on the pathological control group, the inhibition ratio (%) of the respective individuals and the average value thereof were calculated from the following formula, and an ED50 value was calculated based on the obtained inhibition ratio. Inhibition ratio of each individual (%)={1−(A−Vehicle)/(Morphine−Vehicle)}×100 Morphine: the average of the scratching number of the pathological control group Vehicle: the average of the scratching number of the normal control group A: the scratching number of each individual in the test substance-administered group

[6] = test system: Mice serum protein; test: in vitro; format: in vitro ADME; details: murine serum, equilibrium dialysis, 37° C., 5 to 6 hours
Protocol: (§1) The protein binding rate was determined by equilibrium dialysis method using the RED Device (8K MWCO, Rapid Equilibrium Dialysis Device, Thermo Scientific). The test substances that had been dissolved in DMSO were added to the serum that was collected from Crl: CD-1 (ICR) mice fasted overnight, so that the final concentration of DMSO became 1% (v/v). The serum to which the test substance had been added was added to the inner side of the dialysis membrane of the RED Device, and PBS (phosphate buffer saline, pH 7.4) containing 0.01% (v/v) Tween 80 was added to the outside in accordance with the method for using the RED Device and incubated at 37° C. for 5 to 6 hours with ellipsoidal shaking at 100 rpm so that the concentration of the unbound test substance in the serum and the concentration of the test substance in the PBS reached equilibrium. After the incubation was completed, the respective solutions were collected and stored under freezing at −60° C. or less as measurement samples. The proteins were removed from the measurement sample by adding acetonitrile in an amount of 5-fold or more of the amount of the internal standard substance and the serum sample, and the supernatants were measured by LC/MS/MS (liquid chromatograph—triple quadrupole mass spectrometer). The serum samples were measured after suitably diluting with distilled water as necessary.
(§2) A: the concentration of the test substance in the PBS sample
(§3) B: the concentration of the test substance in the serum sample

[7] = in vitro; format: in vitro ADME, mice; details: Crl:CD-1 (ICR), mouse, pH 7.4; murine serum, equilibrium dialysis, 37° C., 5 to 6 hours; read-out: Protein binding rate (converted)
Protocol: as §1, §2, §3

hERG current, sequence (Q12809 whole entry): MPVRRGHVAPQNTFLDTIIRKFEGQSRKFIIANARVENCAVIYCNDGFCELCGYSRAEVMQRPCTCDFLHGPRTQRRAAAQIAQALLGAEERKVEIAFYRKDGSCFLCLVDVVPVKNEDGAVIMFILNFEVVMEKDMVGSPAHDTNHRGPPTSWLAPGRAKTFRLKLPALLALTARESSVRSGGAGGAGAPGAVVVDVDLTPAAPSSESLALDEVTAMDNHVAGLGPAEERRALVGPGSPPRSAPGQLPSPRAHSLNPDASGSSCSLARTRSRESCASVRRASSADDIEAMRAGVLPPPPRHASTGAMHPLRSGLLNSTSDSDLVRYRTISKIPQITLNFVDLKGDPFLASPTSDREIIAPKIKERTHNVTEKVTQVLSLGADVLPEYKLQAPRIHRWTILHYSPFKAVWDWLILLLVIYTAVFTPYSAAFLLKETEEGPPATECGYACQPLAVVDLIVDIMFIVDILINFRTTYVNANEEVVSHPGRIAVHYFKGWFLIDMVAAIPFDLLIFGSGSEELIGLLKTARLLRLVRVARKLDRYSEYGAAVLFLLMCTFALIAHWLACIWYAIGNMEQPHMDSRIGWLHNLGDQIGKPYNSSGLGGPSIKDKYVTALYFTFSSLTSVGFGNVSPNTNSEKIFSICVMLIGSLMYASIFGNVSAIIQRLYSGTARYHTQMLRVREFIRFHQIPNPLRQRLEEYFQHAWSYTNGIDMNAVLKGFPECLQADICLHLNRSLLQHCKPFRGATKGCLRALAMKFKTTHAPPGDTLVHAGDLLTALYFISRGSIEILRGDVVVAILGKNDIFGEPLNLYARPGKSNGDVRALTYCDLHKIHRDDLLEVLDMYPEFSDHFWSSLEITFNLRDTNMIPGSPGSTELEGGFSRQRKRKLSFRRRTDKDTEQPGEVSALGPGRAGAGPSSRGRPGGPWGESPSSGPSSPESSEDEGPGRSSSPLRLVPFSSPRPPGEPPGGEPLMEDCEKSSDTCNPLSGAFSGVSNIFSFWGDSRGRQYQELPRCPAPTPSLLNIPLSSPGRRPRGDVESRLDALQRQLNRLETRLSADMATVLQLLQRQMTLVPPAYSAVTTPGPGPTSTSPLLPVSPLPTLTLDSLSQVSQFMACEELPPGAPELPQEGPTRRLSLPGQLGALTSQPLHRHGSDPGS

Row | SMILES | IC50 [1] [nM] | Safety margin [2] | IC50 [3] [nM] | Plasma concentration of test substance [4] [nM] | ED50 ([5]; Mus musculus, read-out: ED50) [mg/kg] | IC50 ([1]; inhibition of DAMGO (10 nM)-stimulated [35S]-GTPγS binding, human μ-opioid receptor membrane, read-out: IC50) [nM] | Protein binding rate [6] [%] | ED50 [5] [mg/kg] | fraction unbound [7]
1 | C[C@]1(c2cccc(NS(=O)(=O)C3CC3)c2)[C@@H]2CN(CC3(O)Cc4ccccc4C3)C[C@@H]21 [Example 17-(b), N-(3-{(1R,5S,6r)-3-[(2-hydroxy-2,3-dihydro-1H-inden-2-yl)methyl]-6-methyl-3-azabicyclo[3.1.0]hexan-6-yl}phenyl)cyclopropanesulfonamide hydrochloride] | 5.4 | 48 | 130 | 68.2 | 1.5 |  |  |  | 
2 | CC[C@]1(c2cccc(NS(=O)(=O)C3CC3)c2)[C@@H]2CN(CC3(OC)Cc4ccccc4C3)C[C@@H]21 [Example 3-(b), N-(3-{(1R,5S,6r)-6-ethyl-3-[(2-methoxy-2,3-dihydro-1H-inden-2-yl)methyl]-3-azabicyclo[3.1.0]hexan-6-yl}phenyl)cyclopropanesulfonamide hydrochloride] | 3.6 | 1980 | 580 | 48.8 | 4.2 |  |  |  | 
3 | CC[C@]1(c2cccc(NS(C)(=O)=O)c2)[C@@H]2CN(CC3(O)Cc4ccccc4C3)C[C@@H]21.CS(=O)(=O)O [Comparative compound 1, N-(3-{(1R,5S,6r)-6-ethyl-3-[(2-hydroxy-2,3-dihydro-1H-inden-2-yl)methyl]-3-azabicyclo[3.1.0]hexan-6-yl}phenyl)methanesulfonamide methanesulfonate, reference compound] |  |  |  | 157 |  | 1.3 | 93.2 | 2.6 | 
4 | CC[C@]1(c2cccc(NS(=O)(=O)C3CC3)c2)[C@@H]2CN(CC3(O)Cc4ccccc4C3)C[C@@H]21 [Example 1-(a), N-(3-{(1R,5S,6r)-6-ethyl-3-[(2-hydroxy-2,3-dihydro-1H-inden-2-yl)methyl]-3-azabicyclo[3.1.0]hexan-6-yl}phenyl)cyclopropanesulfonamide] |  | 82 | 110 | 70.8 | 3.5 |  |  |  | 0.019
5 | CC[C@]1(c2cccc(NS(=O)(=O)C3CC3)c2)[C@@H]2CN(CCCC3(OC)CCC(F)(F)CC3)C[C@@H]21 [Example 6-(b), N-(3-{(1R,5S,6r)-3-[3-(4,4-difluoro-1-methoxycyclohexyl)propyl]-6-ethyl-3-azabicyclo[3.1.0]hexan-6-yl}phenyl)cyclopropanesulfonamide hydrochloride] |  |  | 660 |  | 0.42 |  |  |  | 0.039
6 | CC[C@]1(c2cccc(NS(=O)(=O)C3CC3)c2)[C@@H]2CN(CCCN3CCC(F)(F)CC3)C[C@@H]21 [Example 7-(b), N-(3-{(1R,5S,6r)-3-[3-(4,4-difluoropiperidin-1-yl)propyl]-6-ethyl-3-azabicyclo[3.1.0]hexan-6-yl}phenyl)cyclopropanesulfonamide hydrochloride] | 1.4 | 375 | 1200 | 21.5 | 2.4 |  |  |  | 

— US9663463B2, “3-azabicyclo[3.1.0]hexane derivative and use thereof for medical purpose” (priority 2013, dated 2017)
